Data on 92 compounds can be found in a melting point compilation (Tetko et al.; mined from patent text by program, amines drawn as free bases though some values may be those of a salt).

A word on the melting point: it is the temperature of the solid-liquid transition. `O=c1ccc(-c2ccc(OC3CCN(C4CCCC4)CC3)nc2)n[nH]1` displayed a melting point of 233 to 237 °C.

Compound `OC(CCCN1CCC(O)(c2ccc(Cl)cc2)CC1)c1ccc(F)cc1` (configuration not stated) came in with a melting point of 128 to 130 °C.

On to `CC(C)CCc1c(-c2ccc(S(C)(=O)=O)cc2)cnn(-c2ccc(F)c(Cl)c2)c1=O`, for which the melting point fell in the range of 55 to 58 °C.

In the case of `COC(=O)C(O)C(CC(C)C)NC(=O)C(Cc1c[nH]cn1)NC(=O)C(CC(=O)N1CCCCC1)Cc1cccc2ccccc12` (mixture of isomers), the melting point lay in the range of 91 to 97 °C.

Compound `COC1=NS(=O)N=C1OC` had a melting point of 137 to 139 °C.

Turning to `CCCCCCCCNc1c(Nc2ccc(CC(C)NC[C@H](O)COc3ccc(O)cc3)cc2)c(=O)c1=O` (some centres not stated), the melting point fell in the range of 122 to 127 °C.

Take `CSc1ccc(C(=O)c2cc(-c3ccc(S(C)(=O)=O)cc3)c(N3CCOCC3)s2)cc1`: the melting point was 160 °C.

Compound `CC(N)=CC(=O)CS(=O)(=O)N(C)C` displayed a melting point of 137 to 140 °C.

Compound `CCCCCC(=O)Nc1ccc2ccn(CCCCCCCC#N)c2c1` had a melting point of 85 to 86 °C.

The compound `Cc1nnc2n1-c1ccc(I)cc1C(c1ccccc1F)=NC2C` (configuration not stated) displayed a melting point of 142 to 145 °C.

On to `CCOC(=O)C(Cc1c[nH]c2cc(Cl)cc(Cl)c12)=NO`, for which the melting point was 175 to 176 °C.

As to `COc1cc(Nc2c(C#N)cnc3cc(-c4ccccc4)sc23)c(Cl)cc1Cl`, the melting point lay within 274 to 276 °C.

In turn, `Cn1cc(-c2c(-c3ccccc3)nn3ccncc23)ccc1=O` gave a melting point of 168 to 169 °C.

Compound `N#Cc1ccc(OCCc2c[nH]cn2)cc1` yielded a melting point of 181 to 183 °C.

Regarding `CC(C)(O)c1ccc(CNC(=O)c2cccnc2Oc2cccc3c2CCC3=O)cc1`, the melting point was in the range of 145 to 147 °C.

`CCCCNc1c([N+](=O)[O-])cc(C(=O)O)cc1S(N)(=O)=O` returned a melting point of 192 °C.

In turn, `O=c1cc(C(F)(F)F)ncn1-c1c(Cl)cc(C(F)(F)F)cc1[N+](=O)[O-]` returned a melting point of 149 to 150 °C.

Compound `COC1(c2ccc(N(C)C)cc2)OC(=O)c2cc(N(C)C)ccc21` (configuration not stated) yielded a melting point of 140 to 147 °C.

`Cc1ccc(-c2nn(CCCO)c(N)c2C(N)=O)cc1` yielded a melting point of 164 to 165 °C.

`O=C(O)Cc1ccc2c(c1)C(=O)c1ccccc1CS2` yielded a melting point of 96 to 97 °C.

`Nc1cc(OCc2cccc(I)c2)c(C(=O)NC2CN3CCC2CC3)cc1Cl` (configuration not stated) showed a melting point of 102 to 104 °C.

In turn, `CCCCCCc1nc2cc3c(cc2[nH]1)NC(=O)C3(C)C` had a melting point of 233 to 234 °C.

For the compound `CC(C)(C)OC(=O)CN1CC(c2ccc(F)cc2)CCC(N=[N+]=[N-])C1=O` (configuration not stated), the melting point fell in the range of 136 to 137 °C.

`CCOC(=O)C1=C(COCc2nc(C(=O)OCC)cs2)NC(C)=C(C(=O)OC)C1c1ccccc1Cl` (configuration not stated) yielded a melting point of 111 to 113 °C.

Take `CC1(C)OC(=C(C#N)C#N)C(C#N)=C1c1ccc(N=[N+]=[N-])cc1`: the melting point came out at 184 °C.

As to `COc1ccc(C(=O)N[C@H]2CCN(C)C[C@H]2c2ccccc2)cc1OC` (relative stereo), the melting point lay within 153 to 155 °C.

As to `CS(=O)c1ccc(-n2cnc3ccc(-c4nnc(S)o4)cc32)cc1` (configuration not stated), the melting point was in the range of 299 to 300 °C.

With `Cc1cn(C)c2c1N(C(=O)CCBr)c1ccccc1NC2=O`, the melting point fell in the range of 194 to 195 °C.

Regarding `Clc1cnc(Oc2cccc(C=C(Br)Br)c2)nc1`, the melting point stood at 68 °C.

For the compound `CNC(=O)N1CC(C)(C)NC(C)(C)CC1=O`, the melting point is 147 to 149 °C.

In turn, `CC(=O)OC1CSC(Oc2cccc(C)n2)C(OC(C)=O)C1OC(C)=O` (configuration not stated) came in with a melting point of 106 °C.

Turning to `COC(=O)c1ccc(C(=O)c2ccc(C)cc2)cc1`, the melting point fell in the range of 125 to 126 °C.

With `CCCN(c1ccc(O)c(Cl)c1)S(=O)(=O)c1ccc(O)cc1`, the melting point lay in the range of 138 to 140 °C.

In turn, `O=C(Cc1ccncc1)NCc1cccc2c1C(=O)N(C1CCC(=O)NC1=O)C2=O` (configuration not stated) gave a melting point of 294 to 296 °C.

The compound `CCOP(=O)(CCN1CCC(N(C)S(=O)(=O)c2ccc(Nc3nccc(Nc4ccc(F)cc4)n3)cc2)CC1)OCC` yielded a melting point of 95 to 100 °C.

On to `CCCN(C1=C(O)CC(C2CCCC2)(C2CCCC2)OC1=O)c1cccc(N)c1`, for which the melting point was in the range of 173 to 175 °C.

In the case of `CC(=O)c1ccc2c(c1)CCS2(=O)=O`, the melting point was in the range of 54 to 56 °C.

`O=C(O)Cn1c(-c2ccccc2Cl)nc2cccnc21` came in with a melting point of 227 to 228 °C.

Compound `N#CCCN(CC1CC1)C(N)=O` returned a melting point of 84 to 87 °C.

The compound `COc1ccc(-c2ccc3c(Br)c(OC)ccc3c2)cc1` displayed a melting point of 172 to 174 °C.

For `Cc1ccccc1C1(C#N)C2CC3CC(C2)CC1C3` (configuration not stated), the melting point lay within 80 to 81 °C.

For the compound `O=C(NCc1ccccn1)Nc1cc(N2CC(Cc3ccccc3)OC2=O)ccn1` (configuration not stated), the melting point lay in the range of 191 to 193 °C.

Take `COC(C)(C)C(=O)C(Oc1ccc(Cl)cc1Cl)n1cncn1` (configuration not stated): the melting point was 53 to 54 °C.

In turn, `CC(=O)OCCCNc1cc(C)nc2cn[nH]c12` gave a melting point of 115 to 119 °C.

The compound `COc1cccc2c1OC(C(=O)Nc1ccncc1)C2CC(=O)OCc1ccccc1` (configuration not stated) came in with a melting point of 165 to 166 °C.

Consider `N#CC(SCCc1ccc2c(c1)OCO2)C(=O)O` (configuration not stated), for which the melting point fell in the range of 106 to 107 °C.

`O=C(Nc1cccc2c1C(=O)c1c-2n[nH]c1C1CCN(C(=O)N2CCNCC2)CC1)NN1CCOCC1` returned a melting point of 195 to 197 °C.

Turning to `CCOC(=O)c1c(C)[nH]c2ccccc12`, the melting point was in the range of 96 to 98 °C.

Regarding `Cn1cc(CNC(=O)c2ccnc(N3CCN(Cc4ccc(F)cc4)C3=O)c2)cn1`, the melting point fell in the range of 165 to 166 °C.

Turning to `COC(=O)c1cc2c(C)ccc(C)c2n1C(=O)Oc1ccccc1`, the melting point was in the range of 83 to 84 °C.

The compound `CC(C)(Br)C(=O)NOCc1ccccc1` displayed a melting point of 88.6 to 91.1 °C.

As to `CC(=O)Oc1ccc(C(=O)O)cc1C(=O)c1ccccc1`, the melting point fell in the range of 162 to 163 °C.

On to `CCCCOc1c(NCCCBr)c(=O)c1=O`, for which the melting point lay within 56 to 57 °C.

In turn, `C/C=C/CNC(=O)N1CC(Oc2ccc(C(F)(F)F)cc2)C1` yielded a melting point of 157 to 158 °C.

For `CCOC(=O)[C@H]1C2C1[C@](N[C@H](C)c1ccccc1)(C(=O)OCC)C[C@@H]2O` (some centres not stated), the melting point lay within 73 to 74 °C.

In turn, `COc1cc2c3c(c1O)-c1ccc(Cl)cc1CC3N(C)CC2` (configuration not stated) registered a melting point of 155 to 157 °C.

`CC(C)(C)OC(=O)Cc1nc(Sc2ccccc2)ccc1[N+](=O)[O-]` came in with a melting point of 104 to 107 °C.

In turn, `Cc1ccc2oc(C(O)[C@H](C)NC(=O)OCc3ccccc3)nc2c1` (some centres not stated) returned a melting point of 134 to 135 °C.

The compound `CCOC(=Cc1ccncc1)C(C)=O` returned a melting point of 84 to 88 °C.

For `C=CCSC(=S)N1Cc2[nH]c3ccccc3c2CC1C(=O)O` (configuration not stated), the melting point was in the range of 161 to 162 °C.

As to `COc1cc(OC)c([N+](=O)[O-])nc1N`, the melting point was found to be 195 °C.

`CC(Cn1c2ccccc2c2ccccc21)OS(C)(=O)=O` (configuration not stated): the melting point lay in the range of 125 to 127 °C.

For the compound `CCO[C@H](C(=O)N1C(=O)OC[C@@H]1Cc1ccccc1)[C@H](O)c1ccc2oc(Cc3nc(-c4ccccc4)oc3C)cc2c1`, the melting point stood at 66 °C.

Regarding `COc1cc(NS(=O)(=O)c2cccs2)c2[nH]c(C(=O)NCCSC(c3ccccc3)(c3ccccc3)c3ccccc3)cc2c1`, the melting point is 128 to 129 °C.

Consider `O=C1c2ccccc2C(=O)N1CC1Cc2ccc3c(c2O1)CCC3` (configuration not stated), for which the melting point was in the range of 131 to 135 °C.

Regarding `NCC1(CC(=O)O)CCCCCC1`, the melting point amounted to 180 °C.

Compound `O=[N+]([O-])c1cc(OCc2ccccc2)cc(C2CO2)c1` (configuration not stated) displayed a melting point of 54 to 55 °C.

For the compound `CSc1noc(-c2ccc(OCCCCOc3ccccc3)cc2)c1C#N`, the melting point was 113 to 114 °C.

Take `OC1CSC(=S)N1c1ccccn1` (configuration not stated): the melting point was found to be 110 °C.

As for `FC(F)(F)Oc1ccc(-n2cnc(-c3ccc(CBr)cc3)n2)cc1`, the melting point was 124 to 126 °C.

As for `Clc1ccc2oc(Cl)nc2c1`, the melting point was 46 to 48 °C.

The compound `COC(=O)C(c1ccc(Cl)cc1)c1c(Cl)cc(-n2ncc(=O)[nH]c2=O)cc1Cl` (configuration not stated) yielded a melting point of 121 °C.

With `O=C1N[C@H](c2ccco2)[C@@H]1O`, the melting point was 133 to 135 °C.

For `N#Cc1cc(Cl)ncc1Cl`, the melting point lay in the range of 55 to 58 °C.

As to `CCOC(=O)CCc1c(-c2ccccc2)c2cc(C)c(C)cc2c(=O)n1C`, the melting point lay within 138 to 139 °C.

Turning to `CCNc1nc(C)c(-c2ccnc(Nc3ccc4c(c3)OCO4)n2)s1`, the melting point was in the range of 194 to 195 °C.

`COc1cc2c(Nc3cccc(Cl)c3F)ncnc2cc1OC1CCN(C(=O)CC(C)(C)O)CC1`: the melting point was in the range of 196 to 199 °C.

`COc1nc2cccc(C(=O)O)c2n1Cc1ccc(-c2ccccc2-c2nnn[nH]2)cc1` had a melting point of 208 to 209 °C.

Compound `COCc1nc2cnc3ccccc3c2n1CC(C)C` showed a melting point of 96 to 99 °C.

`CCCn1cccc1C(N)=S`: the melting point lay within 88 to 91 °C.

Turning to `Cc1c(C#N)ncn1-c1cccc(O)c1`, the melting point lay in the range of 205 to 207 °C.

As for `Cn1nc(COc2ccc(CCCC#N)cc2)nc1-c1ccccc1`, the melting point lay in the range of 106 to 107 °C.

`CCS(=O)(=O)Nc1ccc(Cc2ccc(NC3=NCCN3)cc2)cc1`: the melting point turned out to be 178 °C.

Consider `Cc1ccccc1CN1CCC(c2cc(-c3ccc(Cl)cc3)[nH]n2)CC1`, for which the melting point lay within 142 to 143 °C.

As for `CC(C)(CO)Oc1ccc(CNc2ccc(Cl)cc2)cc1`, the melting point was 84 to 91 °C.

The compound `O=S(=O)(c1cccs1)N(CCN1CCOCC1)c1cccc2cc(-c3nccs3)[nH]c12` displayed a melting point of 192 to 193 °C.

For `Cc1cccc(-c2ccc(C(=O)O)cc2)c1`, the melting point lay within 198 to 200 °C.

As for `COC(=O)c1cc(Cl)c(Oc2ccc(OC)cc2)c(Cl)c1`, the melting point was 82 to 85 °C.

Compound `O=C(O)c1cccc(C(=O)O)c1Nc1cccc(I)c1` registered a melting point of 214 to 216 °C.

With `CC(C)c1cc(C(C)C)c(SSc2c(C(C)C)cc(C(C)C)cc2C(C)C)c(C(C)C)c1`, the melting point lay within 93 to 94 °C.

`O=C1NC(=O)c2c1c(-c1ccccc1Cl)cc1c2c2cc(O)c(OCCCN3CCOCC3)cc2n1CCO` displayed a melting point of 253 to 255 °C.

Turning to `Oc1ccc(OCC(O)CNC2CCN(c3ccc(Cl)cn3)CC2)cc1` (configuration not stated), the melting point was 148 to 150 °C.
